Data on 2 compounds can be found in patent publication US20090169474A1, “METHOD FOR NONINVASNELY AND QUANTITATIVELY MONITORING THERAPEUTIC AND DIAGNOSTIC TRANSGENE EXPRESSION INDUCED BY EX VNO AND IN VNO GENE TARGETING IN ORGANS, TISSUES AND CELLS” (The Regentsf of the University of California, priority 2006, published 2009).

The test system of data set [1] is HSV1-sr39tk reporter gene expression in cardiac allografts. Put plainly: Micro-PET imaging of [18F]FHBG / [18F]FDG accumulation. The format is in vivo. To be noted: recipient rabbit with gene transfected donor heart in the neck. How it is done:
Micro-PET scan was performed on postoperative days 2, 4, 6, 8, 12, 20, and 28 in the IL-10 gene therapy group and days 2, 4, 6, and 8 in the control group. Recipient rabbits were intravenously injected with 1 mCi of [^18F]FHBG PET reporter probe. After a 1-h rest to allow for tracer uptake and clearance, the rabbits were imaged with a micro-PET-P4 (Primate P4; Concorde Microsystems, Inc., Knoxville, Tenn., USA) for 45 min over the neck and chest. Micro-PET image data were reconstructed by filtered back-projection and were reoriented into short, vertical, and horizontal long axis slices. From regions of interest on the anterolateral wall (short axis cut), derived counts/pixel/min were converted to counts/ml/min using a calibration constant obtained from scanning a cylindrical phantom. The regions-of-interest (ROI) counts/ml/min were converted to counts/g/min (assuming a tissue density of 1 g/ml) and divided by the injected dose to obtain an image ROI-derived [^18F]FHBG percentage injected dose per gram of heart (% ID/g). The total myocardial accumulation of [^18F]FHBG was corrected for background activity in each region of interest, summed for the 12 slices, and expressed as % ID=(total activity in 12 regions of interest (ROI), left ventricle (LV) (MBq)-total activity in 12 ROI BG (MBq))/injected dose (MBq)×100. […]

Data set [2] relates to wild-type HSV1-tk and HSV1-sr39tk PET reporter genes. Put plainly: In vivo imaging of PET reporter genes with reporter probes. The source says: Two main categories of substrates, uracil nucleoside derivatives labelled with radioactive iodine (e.g., I-labelled 2′fluoro-2′-deoxy-1-β-D-arabinofura-nosyl-5-iodo-uracilc(FIAU)), and acycloguanosine derivatives labelled with radioactive ^18F-fluorine (e.g., 9-[(4-[^18F]-fluoro-3-hydroxymethylbutyl)guanine (FHBG) and 8-[^18F]fluropenciclorivr (FPCV)), have been investigated as reporter probes for imaging HSV1-tk reporter gene expression.

As to “2-[^18F]fluoro-2-deoxy-d-glucose [[^18F]FDG]”, the “localization of probe activity on micro-PET” value in data set [1] was “in the donor heart as well as in the recipient's heart and skeletal muscle of limb and neck”.
`Nc1nc2c(ncn2CCC(CO)C[18F])c(=O)[nH]1` (stereo not drawn) [[^18F]FHBG, 9-(4-[^18F]fluoro-3-hydroxymethylbutyl)guanine]: the “effectiveness as probe for in vivo imaging, compared with FPCV” value in data set [2] is “more effective probe”. In addition, the “localization of probe activity on micro-PET” value in data set [1] is recorded as “only in targeted donor heart in the neck”.
